Assay results published in patent publication US20240415808A1, “Dosage Regimen for Fexuprazan Injection Composition” (Daewoong Pharmaceutical Co., Ltd., priority 2021, published 2024).
Values joined by “and” are separate entries in the source; they are usually repeats but may differ in a detail not shown here. Equal values may be shown once.

Columns and labels:
[1] = test system: indomethacin-induced bleeding gastric ulcer; assay: indomethacin-induced bleeding gastric ulcer model using male rats; format: in vivo, rat; settings: for Ulcer index (%): 30 min before indomethacin 80 mg/kg oral, autopsy 5 h; for Ulcer index (%) / Gastric erosion state / Gastric hemorrhage state: mean ± SD; for Gastric erosion state / Gastric hemorrhage state: histopathological examination
Procedure: In order to evaluate the efficacy of fexuprazan against bleeding gastric ulcers, an indomethacin-induced bleeding gastric ulcer model using male rats was used.
Specifically, the previously prepared 1-(5-(2,4-difluorophenyl)-1-((3-fluorophenyl)sulfonyl)-4-methoxy-1H-pyrrol-3-yl)-N-methylmethanamine (hereinafter referred to as ‘fexuprazan’) hydrochloride was dissolved in a solution containing 30 wt. % of polyethylene glycol (Polyethylene Glycol 400) polymer in physiological saline. The concentration was adjusted so that 0, 0.1, 0.5, 1, 2 mg/kg based on fexuprazan weight could be administered to each test animal in a liquid volume of 1 mL/kg, and then each test animal was administered through the tail vein as a single dose. In addition, 1 mg/kg of esomeprazole magnesium trihydrate, which is a positive control, based on esomeprazole weight was administered as a single dose through the tail vein in test animals. After 30 minutes, 80 mg/kg of indomethacin was orally administered as a single dose to each test animal to induce gastric bleeding and ulceration. An autopsy was performed 5 hours after administration of indomethacin, and the stomach was removed. Then, the ulcer index (%) was measured using an image program (Leica Application Suite V4), and gastric hemorrhage and erosion state were evaluated through histopathological examination.

[2] = single intravenous dose-escalation clinical trial, safety; format: in vivo, human; settings: healthy adults, single intravenous 10, 20, 40, 80 mg
Procedure: (§1) In order to confirm the safety/PK/PD of the compound of the present invention during intravenous administration, the clinical trial was designed with random assignment, double-blind, placebo-controlled, single dose, and stepwise dose-escalation in healthy adults (Korean/Chinese) between the ages of 19 and 50.
(§2) The freeze-dried composition prepared as above was used, but a total of 28 subjects of 4, 8, 8, and 8 subjects each were enrolled for four dose groups (10 mg, 20 mg, 40 mg, and 80 mg) based on fexuprazan weight, and each group was randomly assigned to test or control groups in the order that they passed the screening criteria at a ratio of 3:1. All test subjects completed safety, pharmacokinetic, and pharmacodynamic evaluations according to the planned clinical trial schedule.
(§3) Testing of the acidity (pH) in the gastrointestinal tract and gastric secretion promoting hormone gastrin were performed from 24 hours before medication to 24 hours after medication. Blood collection for pharmacokinetics and urine collection for pharmacokinetics were performed for 48 hours from the time of medication.

[3] = oral vs intravenous two-way crossover clinical trial, safety; format: in vivo, human; settings: healthy adults, single 40 mg oral and 40 mg intravenous
Description: (§4) Therefore, in order to compare the safety/PK/PD of the compound of the present invention during single intravenous administration and during single oral administration and derive the bioavailability, the clinical trial was designed as a randomized, open-label, single-dose, two-period, two-way crossover trial in healthy adults. The selection/exclusion criteria were the same as in Experimental Example 4. A total of 8 subjects were enrolled, and four subjects each were randomly assigned to sequence group 1 or sequence group 2 in the order in which they passed the screening criteria. All test subjects completed safety, pharmacokinetic, and pharmacodynamic evaluations according to the planned clinical trial schedule.
as §3

[4] = single intravenous dose-escalation clinical trial, pharmacokinetics; format: in vivo; settings: human, blood, healthy adults
Procedure: as §1
A stabilizer (200 mg), a freeze-drying auxiliary agent (200 mg), and the previously prepared fexuprazan hydrochloride (40 mg based on fexuprazan weight) were dissolved in water for injection (4 mL), and an appropriate amount of acid was added thereto to adjust the pH to 4.0. The prepared solution was put into a vial, dried by a freeze-drying method, and prepared as a freeze-drying agent.
as §2
The medication was performed in the morning, and the patient was discharged from the hospital on the third day of medication. Subsequently, a close-out visit was performed between the 8th and 11th day of medication.
as §3
After a single intravenous administration of four dose groups for fexuprazan, the dose proportionality of fexuprazan to the Cmax, AUClast, and AUCinf parameters was evaluated between doses of 10 mg and 80 mg. The log-transformed parameters and 95% confidence interval regression lines of each dose after a single administration are shown in Table 7 and FIG. 3, respectively. […] That is, it can be confirmed that the pK parameter of intravenous administration is proportional to the dose.
Table 8 and FIG. 4 show the results of the Kruskal Wallis test for dose-normalized Cmax (Cmax/Dose), AUClast (AUClast/Dose), and AUCinf (AUCinf/Dose) between dose groups. […] That is, it can be seen that there is no significant difference between dose groups in the proportional relationship, and the appropriate dose for intravenous administration can be calculated indirectly through the appropriate dose for oral administration.

[5] = test system: acidity (pH) in the gastrointestinal tract; assay: oral vs intravenous two-way crossover clinical trial, acidity (pH) in the gastrointestinal tract; format: in vivo, human; settings: healthy adults
Description: as §4
A screening visit was performed 3 to 28 days before the start of the clinical trial, and hospital admission was performed 2 days before medication. The first phase medication was performed according to the order group randomly assigned on the morning of the day. A stabilizer (200 mg), a freeze-drying auxiliary agent (200 mg), and the previously prepared fexuprazan hydrochloride (40 mg based fexuprazan weight) were dissolved in water for injection (4 mL), an appropriate amount of acid was added thereto. A composition whose pH was adjusted to 4.0 was administered intravenously, or an excipient (100 mg), a disintegrant (5 mg), and the previously prepared fexuprazan hydrochloride (40 mg based on fexuprazan weight) were mixed and compressed to prepare a tablet, which were administered orally. The hospital discharge was performed on the third day of medication. The second phase medication was performed on the morning of the 8th after hospital admission on the 6th day after the first phase medication. Hospital discharge was performed on the 10th day of medication. Subsequently, a close-out visit was performed between 15 and 18 days after medication (FIG. 6).
as §3

[6] = 0.1 mg/kg single dose tail vein
[7] = 0.5 mg/kg single dose tail vein
[8] = intravenous administration (40 mg)

In the case of `CNCc1cn(S(=O)(=O)c2cccc(F)c2)c(-c2ccc(F)cc2F)c1OC` [Fexuprazan, 1-(5-(2,4-difluorophenyl)-1-((3-fluorophenyl)sulfonyl)-4-methoxy-1H-pyrrol-3-yl)-N-methylmethanamine], the “Ulcer index (%)” value [1, 6] is reported as 9.2 ± 2.3^ %, the Gastric erosion state [1, 6] is reported as 2.9 ± 1.2 and the Gastric hemorrhage state [1, 6] is reported as 1.5 ± 1.6^. The “Ulcer index (%)” value [1, 7] was 4.0 ± 1.8 %, the Gastric erosion state [1, 7] was 1.3 ± 1.0 and the Gastric hemorrhage state [1, 7] was 0.5 ± 0.8. The “Ulcer index (%)” value ([1]; 1 mg/kg single dose tail vein) was 4.2 ± 2.5 %, the Gastric erosion state ([1]; 1 mg/kg single dose tail vein) was 0.8 ± 0.7 and the Gastric hemorrhage state ([1]; 1 mg/kg single dose tail vein) was 0.3 ± 0.5. For the same molecule, the “Ulcer index (%)” value ([1]; 2 mg/kg single dose tail vein) was 4.2 ± 1.5 %, the Gastric erosion state ([1]; 2 mg/kg single dose tail vein) was 0.3 ± 0.5 and the Gastric hemorrhage state ([1]; 2 mg/kg single dose tail vein) was 0.3 ± 0.5. The minimum effective dose ([1]; single dose tail vein, ulcer index, gastric hemorrhage and erosion state vs excipient group) was 0.5 mg/kg, the “serious abnormalities or side effects” value [2] was “no serious abnormalities or side effects were observed” and the “serious abnormalities or side effects” value [3] was “no serious abnormalities or side effects were observed”. The AUC(0-inf) ([4]; single intravenous 10 mg) was 240 ± 31.3 ng·h/mL, the AUC(0-t) ([4]; single intravenous 10 mg) was 235 ± 32.3 ng·h/mL and the clearance ([4]; single intravenous 10 mg) was 702 mL/min. It also gave a half-life ([4]; single intravenous 10 mg) of 9.04 ± 0.85 h, a Cmax ([4]; single intravenous 10 mg (N = 3)) of 93.7 ± 13.9 ng/mL and an AUC(0-inf) ([4]; single intravenous 20 mg) of 514 ± 113 ng·h/mL. The AUC(0-t) ([4]; single intravenous 20 mg) was 502 ± 111 ng·h/mL, the clearance ([4]; single intravenous 20 mg) was 677 mL/min and the half-life ([4]; single intravenous 20 mg) was 8.61 ± 1.89 h. It also gave a Cmax ([4]; single intravenous 20 mg (N = 6)) of 185 ± 32.3 ng/mL, an AUC(0-inf) ([4]; single intravenous 40 mg) of 1100 ± 238 ng·h/mL and an AUC(0-t) ([4]; single intravenous 40 mg) of 1070 ± 225 ng·h/mL. It also gave a clearance ([4]; single intravenous 40 mg) of 630 mL/min, a half-life ([4]; single intravenous 40 mg) of 8.84 ± 0.96 h and a Cmax ([4]; single intravenous 40 mg (N = 6)) of 321 ± 75.7 ng/mL. The AUC(0-inf) ([4]; single intravenous 80 mg) was 2380 ± 301 ng·h/mL, the AUC(0-t) ([4]; single intravenous 80 mg) was 2290 ± 271 ng·h/mL and the clearance ([4]; single intravenous 80 mg) was 567 mL/min. For the same molecule, the half-life ([4]; single intravenous 80 mg) was 10.2 ± 1.84 h, the Cmax ([4]; single intravenous 80 mg (N = 6)) was 633 ± 165 ng/mL and the “Fraction time pH ≥ 4 (%)” value [5, 8] was 71.6% and 71.6 ± 13.5%. For the same molecule, the “Fraction time pH ≥ 6 (%)” value [5, 8] was 38.7 ± 10.9%, the “Mean pH” value [5, 8] was 4.9 and 4.9 ± 0.5 and the “Median pH” value [5, 8] was 5.5 ± 0.7. The “Fraction time pH ≥ 4 (%)” value ([5]; oral administration (40 mg)) was 47.5% and 47.5 ± 14.2%, the “Fraction time pH ≥ 6 (%)” value ([5]; oral administration (40 mg)) was 20.3 ± 12.8% and the “Mean pH” value ([5]; oral administration (40 mg)) was 3.9 and 3.9 ± 0.7. For the same molecule, the “Median pH” value ([5]; oral administration (40 mg)) was 3.9 ± 1.2.
